Source: US10772967B2, “Enhanced anticancer agent” (priority 2014, dated 2020)
Like-named read-outs stand apart in the source and are kept apart here. Each block holds one compound with its values, some of them ahead of it.

Tests used:
[1] = Chemical stability in serum and simulated gastric acid; type: in vitro ADME; conditions: at least 48 h
Description: Therefore, TLHE1 is a very good candidate for conjugation to peptides.

[2] = Pharmacokinetic profile of Conj3 and Conj4 in rats; conditions: i.v.
Procedure: (§1) The concentration of test compounds in plasma was determined using validated HPLC method and plotted as a function of time after dosing. Concentrations are expressed as means (±SEM).
(§2) Jugular vein cannulated Sprague-Dawley male rats (200-220 g, 49-52 days old) were used for this study. An extension catheter was attached to the indwelling jugular vein cannula to facilitate remote sampling. The animals were randomly divided into two groups (N=3 or 4): control group and treatment group. […] Simultaneously, the control group was pretreated with vehicle (sterile water) followed by a single combined intravenous dose of molar equivalent of all test compounds as described above. Plasma was collected from each rat and precipitated using 2× solvent B (95:5, Methanol-Water, 0.1% TFA).

[3] = system: T1, trypsin; experiment: Trypsin cleavage experiment in buffer, 7-AMC release; type: biochemical; conditions: hTTR present
T1 construct: purchased Gibco TrypLE Express
T1 sequence (P35049 25-248): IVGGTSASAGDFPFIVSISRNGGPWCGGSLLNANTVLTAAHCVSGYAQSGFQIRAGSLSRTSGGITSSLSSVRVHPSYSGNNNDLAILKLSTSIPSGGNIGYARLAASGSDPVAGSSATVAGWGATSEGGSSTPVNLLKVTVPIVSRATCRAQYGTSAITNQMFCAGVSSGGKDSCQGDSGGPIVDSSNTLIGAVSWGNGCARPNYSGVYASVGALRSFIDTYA
Procedure: We used trypsin to test the ability of hTTR to protect TLHE1-peptide conjugate (Conj1) from proteolysis in buffer. FIG. 14 illustrates the protection effect of binding to TTR on the stability of Conj1 in vitro. hTTR protects Conj1 against trypsin hydrolysis in buffer, according to some embodiments.
AFU is arbitrary fluorescence units.
The experiment was performed in quadruplicate.

[4] = rat, in vivo, iv
Procedure: as §1, §2

[5] = Stability against proteolytic hydrolysis in human serum; conditions: human serum pre-incubated with AG10 (10 μM)
Description: The amounts of compounds remaining in serum were quantitated at different time-points.

[6] = Dose escalation of AG10 in rats, plasma concentration; conditions: i.v., initial rapid decline of total plasma concentration
Procedure: Adult male Wistar rats, body weight ranging 160-200 g, were used for the study. […] Blood samples were collected at 0.08, 2, 4, 8, and 24 hour time intervals. The plasma samples were prepared by centrifugation at 15,000 RPM for 5 min. The resultant plasma was precipitated using 2× solvent B (95:5, Methanol-Water, 0.1% TFA).

Compound: Cc1n[nH]c(C)c1CCCOc1cc(OCCCc2cn(CCOCCOCCOCCC(=O)NCCCCC(NC(=O)C(Cc3ccc(O)cc3)NC(=O)C(CO)NC(=O)C(Cc3c[nH]c4ccccc34)NC(=O)C(Cc3c[nH]cn3)NC(=O)C3CCC(=O)N3)C(=O)NC(CC(C)C)C(=O)NC(CCCNC(=N)N)C(=O)N3CCCC3C(=O)NCC(N)=O)nn2)cc(C(=O)O)c1 (centres unmarked) [Conj4]
time present in circulation [2]: at least 12 h

Compound: Cc1cc(=O)oc2cc(NC(=O)C(CCCCN)NC(=O)CNC(=O)C(CCCNC(=N)N)NC(=O)CCOCCOCCOCCN=[N+]=[N-])ccc12 (stereo not drawn) [Arg-Gly-Lys-MCA]
protection against proteolysis in the presence of hTTR (in words) [3]: no protection against proteolysis

Compound: Cc1n[nH]c(C)c1CCCOc1cc(OCCCc2cn(CCOCCOCCOCCC(=O)NC(CCC(=O)O)C(=O)NC(Cc3c[nH]cn3)C(=O)NC(Cc3c[nH]c4ccccc34)C(=O)NC(CO)C(=O)NC(Cc3ccc(O)cc3)C(=O)NCC(=O)NC(CC(C)C)C(=O)NC(CCCNC(=N)N)C(=O)N3CCCC3C(=O)NCC(N)=O)nn2)cc(C(=O)O)c1 (centres unmarked) [Conj3]
amount remaining after 48 h in serum pre-incubated with AG10 ([5]; 48 h): no detectable amount

Compound: CC[C@H](C)[C@H](NC(=O)[C@H](Cc1ccc(O)cc1)NC(=O)[C@@H]1CCCN1C(=O)[C@H](CCCNC(=N)N)NC(=O)[C@H](CCCNC(=N)N)NC(=O)[C@@H]1CCCN1C(=O)[C@H](CCCCN)NC(=O)[C@H](CC(N)=O)NC(=O)[C@H](CCC(=O)O)NC(=O)[C@H](Cc1ccc(O)cc1)NC(=O)[C@H](CC(C)C)NC(=O)[C@H](CCC(=O)O)NC(=O)CCOCCOCCOCCn1cc(CCCOc2cc(OCCCc3c(C)n[nH]c3C)cc(C(=O)O)c2)nn1)C(=O)N[C@@H](CC(C)C)C(=O)O [Conj2]
amount remaining after 24 h in serum pre-incubated with AG10 ([5]; 24 h): no detectable amount

Now from value to compound:

degradation [1]: < 3%
Compound: C#CCCCOc1cc(OCCCc2c(C)n[nH]c2C)cc(C(=O)O)c1 [TLHE1, 3-(3-(3,5-dimethyl-1H-pyrazol-4-yl)propoxy)-5-(pent-4-yn-1-yloxy)benzoic Acid]

plasma levels after 2 h of administration [2]: no detectable levels
Compound: CC(C)C[C@H](NC(=O)[C@@H](CCCCN)NC(=O)[C@H](Cc1ccc(O)cc1)NC(=O)[C@H](CO)NC(=O)[C@H](Cc1c[nH]c2ccccc12)NC(=O)[C@H](Cc1cnc[nH]1)NC(=O)[C@@H]1CCC(=O)N1)C(=O)N[C@@H](CCCNC(=N)N)C(=O)N1CCC[C@H]1C(=O)NCC(N)=O [GnRH-A, reference compound]

plasma levels after 2 h of administration [4]: no detectable levels
Compound: CC(C)C[C@H](NC(=O)[C@@H](CCCCNC(=O)CCOCCOCCOCCN=[N+]=[N-])NC(=O)[C@H](Cc1ccc(O)cc1)NC(=O)[C@H](CO)NC(=O)[C@H](Cc1c[nH]c2ccccc12)NC(=O)[C@H](Cc1c[nH]cn1)NC(=O)[C@@H]1CCC(=O)N1)C(=O)N[C@@H](CCCNC(=N)N)C(=O)N1CCC[C@H]1C(=O)NCC(N)=O [GnRH-A-Linker]

initial half-life [6]: 5 to 20 min
Compound: Cc1n[nH]c(C)c1CCCOc1cc(C(=O)O)ccc1F [AG10]
